The values below come from patent US11648247B1, “Compositions and methods for the treatment of presbyopia” (Lenz Therapeutics, Inc., priority 2021, dated 2023).

Data set [1] deals with presbyopic subjects. Description: Near and distance visual acuity after topical instillation (lines of improvement, onset, duration, efficacy index). It is filed as in vivo, human. The protocol: As aceclidine is an […], the clinical effectiveness may vary with different ratios. For the present studies a nearly exact 50:50 ratio of stereoisomers was measured as best determined by polarimetry.
In brief, the score is calculated by multiplying the lines of improvement in near visual acuity by the number of hours the improvement lasts. For example, a score of: 5 is equal to +1 lines of improvement in near visual acuity for 5 hours; 10 is equal to +1.5 lines of improvement for 6.7 hours; 15 is equal to 2 lines of improvement for 7.5 hours; 20 is equal to 2.5 lines of improvement for 8 hours; 25 is equal to 3+ lines of improvement for 8.3 hours and 35 is equal to 3.75+ lines of improvement for 9 hours.
The subject instilled 2 drops of the above formulation in each eye as 1 single drop each eye and a second drop after 5 minutes.
2 subjects instilled 2 drops each of the above formulation in each eye about 5 minutes apart.
A 1.75% aceclidine in saline solution was formulated. One drop was instilled into each eye of a presbyopic subject. The visual acuity of the subject was tested both before and after instillation using a LogMAR chart.
Formulation AB#1 was instilled via 2-drops with a 5-minute interval in the eyes of a person. […] All near and distance vision with over-refraction was red-green adjusted to emmetropia. Near vision at 1 hour post instillation was measured. Further, duration to 20.40 vision was measured.

Data set [2] concerns eye. Nature of the data set: Comfort and tolerability after instillation (stinging, redness, ciliary spasm/brow ache, blur, dimming). It is filed as in vivo, human. The note with it: for night vision / dimming: pH 7.5. On the procedure:
Ciliary spasms scores correspond to the following: 0=no discomfort; 0.5=slight sting; 1=noticeable squeeze/discomfort; 2=pain for less than 30 minutes; 3=pain for 1 hour or more; and 4=severe to intolerable pain.

Data set [3] in a line: Stability of aceclidine in storage (HPLC). The data set is classed as physicochemical. The note with it: for Stability of Aceclidine: same composition. On the procedure:
20 samples of the above composition were divided evenly and stored at 25° C. and 4° C. Prior to storage, initial concentrations of aceclidine were measured using […] (“HPLC”). The amount of aceclidine in each solution was calculated by the area under the principal peak compared to a reference solution of aceclidine. Samples were then subject to storage for 3 months. Aceclidine measurements were taken at 1, 2 and 3 months.

Data set [4] concerns presbyopic subjects. The note with it: pilocarpine with oxymetazoline, US 2014/0113946; cited from earlier work.
The subject of data set [5] is eye. Conditions: brimonidine 0.20% w/v (Alphagan®) twice daily; cited from earlier work.
In a further data set the test system is pupil. The note with it: cited from earlier work.
Where [6] appears, read: post instillation, 1.75% aceclidine in saline solution.

Regarding `CC(=O)OC1CN2CCC1CC2` (racemic) [aceclidine], the near vision with presbyopic subjects [1] (FIG. 2, aceclidine in carrier: 5.5% HPβCD, 0.75% CMC, 0.25% NaCl, 0.01% BAK) is given as < 20.20. Moreover, the “LogMAR score at 1-meter distance” value in the data set with presbyopic subjects [1] (after instillation, 1.75% aceclidine in saline solution) is listed as −0.12 LogMAR. Further, the “LogMAR score at 45 centimeters distance” value with presbyopic subjects [1] (after instillation, 1.75% aceclidine in saline solution, one drop each eye, 0.50 prior) was determined as 0.22 LogMAR. The “Noticeable degradation in reading distance acuity began” value in the data set with presbyopic subjects [1] (setting [6]) worked out at 4 h. For the same compound, in the data set on presbyopic subjects [1] (setting [6]), the “improved reading distance acuity maintained” value turned out to be 3.5 h. Also, the “Stinging, lasting” value in the data set on eye [2] (1.35% w/v aceclidine, Example 2) lay in the range of 2 to 5 s. In addition, the “Stability of Aceclidine” value in data set [3] (4° C., 1 month) was 93%; in data set [3] (4° C., 2 months), 92%; in data set [3] (4° C., 3 months), 88%; in data set [3] (4° C., Initial), 100%; in data set [3] (25° C., 1 month), 92%; in data set [3] (25° C., 2 months) it was 75%. For the same compound, in data set [3] (25° C., 3 months), the “Stability of Aceclidine” value worked out at 50%. In addition, in data set [3] (25° C., Initial, 1.50% aceclidine, 0.042% tropicamide, 5.5% polyoxyl 40 stearate, 2.5% mannitol, 3 mM citrate, pH 4.75), the “Stability of Aceclidine (amount vs reference)” value is given as 100%.
In the case of tropicamide, the “night vision / dimming” value in the data set with eye [2] (0.035% w/v tropicamide in 1.55% w/v aceclidine composition) is listed as “slight dimming”; with eye [2] (0.042% w/v tropicamide in 1.55% w/v aceclidine composition), “normal indoor night vision”. Moreover, the “effect on brow ache” value with eye [2] (tropicamide 0.01% w/v with aceclidine) is given as “slightly reduce brow ache”; in the data set on eye [2] (tropicamide 0.014% w/v with aceclidine) it was “reduce brow ache”; in the data set on eye [2] (tropicamide 0.021% w/v with aceclidine), “further reduce brow ache”; in the data set on eye [2] (tropicamide 0.030% w/v with aceclidine), “further reduce brow ache”; in the data set on eye [2] (tropicamide from 0.028% to 0.060% w/v with aceclidine) it was “completely eliminate brow ache”; in the data set on eye [2] (tropicamide from 0.04% to about 0.07% w/v with aceclidine), “completely eliminate brow ache”.
Consider `CC[C@@H]1C(=O)OC[C@@H]1Cc1cncn1C` [pilocarpine], for which the “time until full effect became diminished” value in the data set with presbyopic subjects [4] was “about four hours”.
As for `Brc1c(NC2=NCCN2)ccc2nccnc12` [brimonidine], the rebound redness with eye [5] was 25 % of patients. Moreover, the “tachyphylaxis of pupil modulation” value in the data set on pupil (brimonidine 0.20% w/v topically for night vision, within four weeks of use) is ~100 % of treated subjects. Further, in the data set on pupil (brimonidine, typically), the “duration of miotic effect” value is “about four hours”. The transiently induced miosis in the data set with pupil (brimonidine) is reported as 1.0-2.0 mm.
